Consider six molecules from US12404332B2, “Methods for diagnosing and treating cancers” (Research Development Foundation, priority 2020, dated 2025).

Entries after “also recorded” stand apart in the source; their conditions may differ.

The test system of one data set is Chk2. The data set is described as follows: Chk2 protein content by immunoblot in B16-F10 cells. The class given is cell-based, mouse. As to conditions: PD-L1^KO but not CTRL B16-F10 cells.
In another data set the test system is ID8agg cells. Description: Erlotinib plus olaparib in ID8agg cells (MTT). In kind it is cell-based, mouse. How it is done:
1,000 ID8agg cells were plated per well in 96 well plates. Cells were treated with 1, 2, or 3 μM of erlotinib and 5 μM or olaparib.

The subject of a further data set is γH2AX in RT4 cells. Description: γH2AX immunoblot (DNA damage) in RT4 cells. In kind it is cell-based, human. How it is done:
(§1) Immunoblotting was performed as described (Clark et al., 2016; Gupta et al., 2016). Protein was measured by BCA (ThermoFisher). Cell Signaling antibodies were phospho-histone H2A.X (#9718), phospho-Chk1^Ser345 (#2348), phosph-Chk2^Thr68 (#2197), phospho-ATM^Ser1981 (#5883), phospho-ATR^Ser428 (#2853), total-Chk1 (#2360), total-chk2 (#2662), total-ATM (#2873), total-ATR (#13934), total-NBS1 (#14956), total-Rad50 (#3427), RAD51, vinculin (#13901), beta-actin (#12620), human-PD-L1 (#13684), mouse-PD-L1. Abcam antibodies were (ab3801) and (ab80276) and total-BRCA1 was R&D MAB22101. All were used as per manufacturer's recommendation.
(In western blotting, separated proteins are transferred to a membrane and probed.)

Data set [1] relates to ID8agg murine ovarian cancer cells. The data set is described as follows: In vitro viability (MTT) of CTRL versus PD-L1^KO ID8agg cells. In kind it is cell-based, mouse. To be noted: for sensitivity of PD-L1^KO versus control ID8agg cells to the agent: monotherapy. How it is done:
(§2) Cells (1×10^3) were plated in 96 well plastic culture plates in respective medium and treated for 5 days with DDRi or 3 days with gemcitabine at indicated concentrations. Drug concentrations were carefully optimized in preliminary work not shown. Cell viability was by MTT (3-(4,5-dimethylthiazol-2-yl)-2,5-diphenyl tetrazolium bromide) at 5 mg/ml. Absorbance was measured at 540 nm. Results are presented as a mean+/−SEM of ≥6 replicates. Total cells and viability were confirmed using a Vi-Cell-XR (Beckman Coulter).

Data set [2] deals with RT4 human bladder cancer cells. The data set is described as follows: In vitro viability (MTT) of CTRL versus PD-L1^KO RT4 cells. To be noted: for sensitivity of PD-L1^KO versus control RT4 cells to the agent: monotherapy. In kind it is cell-based. How it is done: as §2
The next data set relates to γH2AX in ID8agg cells. The data set is described as follows: γH2AX immunoblot (DNA damage) in ID8agg cells. In kind it is cell-based, mouse. How it is done:
as §1

The subject of another data set is PD-L1. The data set is described as follows: PD-L1 after DNA damaging agents. In kind it is cell-based.
Data set [3] has as its system B16 murine melanoma cells. The data set is described as follows: In vitro viability (MTT) of CTRL versus PD-L1^KO B16 cells. In kind it is cell-based, mouse. How it is done: as §2
The test system of data set [4] is MB49 murine bladder cancer cells. The data set is described as follows: In vitro viability (MTT) of CTRL versus PD-L1^KO MB49 cells. The class given is cell-based, mouse. How it is done: as §2
In data set [5] the test system is CTRL or PD-L1^KO MB49 tumors. The data set is described as follows: MB49 tumor growth in NSG mice. In kind it is in vivo, mouse. To be noted: PD-L1^KO but not control MB49 tumors. How it is done: (§3) NSG mice were challenged with MB49 (0.3×10^6 cells) subcutaneously on opposite flanks. Olaparib (daily 25 mg/kg, 4% DMSO) was injected intraperitoneally on days 3-11. 4T1 (0.5×10^6 cells) were injected into mammary fat pads of NSG mice with Matrigel (1:1, Corning). Rabusertib (LY2602618, 4% DMSO) was administered intraperitoneally on day 3 (10 mg/kg) and days 10 and 17 (1 mg/kg).

In data set [6] the test system is CTRL or PD-L1^KO B16 tumors. Description: B16 tumor growth in wild type or RAG2^KO mice. The class given is in vivo, mouse. As to the method: B16 cells were injected subcutaneously on opposite flanks into BL6 (0.5×10^6 cells) or RAG2^KO mice (0.4×10^6). Olaparib was administered daily intraperitoneally (50 mg/kg, 4% DMSO) on days 3-13. Tumors were measured with Vernier calipers and volume calculated as (length×width^2)/2. Mice were sacrificed when tumors reached ˜1500 mm^3 or if distressed.

The next data set concerns 4T1 tumors. Description: 4T1 tumors in mice treated with Chk1i ± αPD-L1. In kind it is in vivo, mouse. To be noted: wild type mice. As to the method:
(§4) FIGS. 27A-H: Anti-PD-L1 antibodies mimic genetic PD-L1 depletion to impair tumor cell-intrinsic DDR signals and promote sensitivity to Chk1 inhibition in vitro and in vivo. Cell viability of FIG. 27A, CTRL and FIG. 27B, PD-L1^KORT4 cells treated with LY2603618 (Chk1 inhibitor) as shown plus IgG1 isotype or atezolizumab (atezo, 3 μg/ml) for 72 hours in vitro. Mean+SEM, n=6 replicates, ***, P<0.001, unpaired t-test. FIG. 27C, Immunoblot (IB) analysis of ATM, Chk2, γH2AX and vinculin (VINC) of RT4 cells treated in vitro with isotype, atezolizumab, Chk1i, or their combination. FIG. 27D, Viability of 4T1 cells as in panel A substituting anti-murine PD-L1 and isotype controls. FIG. 27E, IB of 4T1 as in panel FIG. 27C. FIG. 27F, Tumor curves of NSG mice (n=10 tumors/group) challenged with 4T1 tumor cells and treated with Chk1i±αPD-L1. FIG. 27G, Tumor curves and FIG. 27H, tumor weights in WT […] mice challenged and treated as in panel FIG. 27F. P values, two-way ANOVA.

Data set [7] concerns CTRL or PD-L1^lo 4T1 tumors. Description: 4T1 tumor growth in NSG mice. The class given is in vivo, mouse. As to conditions: PD-L1^lo but not control 4T1 tumors, NSG females. As to the method:
as §3

In data set [8] the test system is human MDA-MB-231 triple negative breast cancer cells. Description: In vitro sensitivity of PD-L1^lo versus CTRL MDA-MB-231 cells. The class given is cell-based.
Data set [9] has as its system CTRL and PD-L1^KO RT4 cells. The data set is described as follows: Viability of RT4 cells treated with Chk1 inhibitor plus atezolizumab. In kind it is cell-based, human. As to conditions: in vitro, absence of immune cells. How it is done: as §4
Data set [10] deals with UV induced TpN^61R derived CD274^+/+ or CD274^−/− melanoma cells. The data set is described as follows: Viability of de novo Nras CD274^+/+ versus CD274^−/− melanoma cells. The class given is cell-based, mouse. As to conditions: in vitro. An excerpt: (§5) FIGS. 26A-H: De novo PD-L1^KO tumors phenocopy important aspects of genetic PD-L1 depletion in established tumors. FIG. 26A, Melanoma-free survival of melanocyte specific CD274^fl,fl TpN^61R (KO) versus littermate (WT) autochthonous mice under conditions shown. FIG. 26B, Validation of PD-L1 expression by immunoblot (IB) of melanoma cells derived from UV induced (4.5 Kj/m^2) WT (CD274^+/+) or melanocyte specific CD274^KO (CD274^−/−) mice±in vitro interferon (IFN)-γ treatment. Viability curves of CD274^+/+ versus CD274^−/− cells treated with the selective Chk1 inhibitors FIG. 26C, prexasertib […] or FIG. 26D, rabusertib (LY2603618) in vitro at indicated concentrations. FIG. 26E, IB analysis of PD-L1, ATM, Chk2, and γH2AX of vehicle or rabusertib-treated CD274^+/+ and CD274^−/− cell lines. FIGS. 26F-H, Tumor growth curves in WT C57BL/6J mice (n=10 tumors/group) challenged with UV induced TpN^61R derived CD274^+/+ or CD274^−/− melanoma cells and treated with rabusertib (Chk1i, LY2603618) on the indicated treatment schedule. P values, two-way ANOVA.

Data set [11] deals with 4T1 murine breast cancer cells. The data set is described as follows: In vitro viability (MTT) of CTRL versus PD-L1^lo 4T1 cells. The class given is cell-based, mouse. As to conditions: listed as Chk1i. How it is done: as §2
The test system of data set [12] is TpN^61R derived CD274^+/+ or CD274^−/− melanoma tumors. Description: Growth of de novo PD-L1 null versus replete melanoma in C57BL/6J mice. In kind it is in vivo, mouse. To be noted: C57BL/6J wild type mice.
Text: as §5

For `CO/C1=C\C(C)=C\[C@@H](C)[C@@H](O)[C@@H](C)C/C(C)=C/C=C/[C@H](OC)[C@@H]([C@@H](C)[C@@H](O)[C@H](C)[C@@]2(O)C[C@@H](O)[C@H](C)[C@@H](C(C)C)O2)OC1=O` [Bafilomycin A1], the Chk2 accumulation result in the data set on Chk2 is listed as “led to Chk2 accumulation”.
Take `C#Cc1cccc(Nc2ncnc3cc(OCCOC)c(OCCOC)cc23)c1` [erlotinib]: the “olaparib activity in combination” value with ID8agg cells (FIG. 46A) was “Olaparib activity is seen with erlotinib”. In the data set on ID8agg cells (previous western, 24 hours, but not at 48 hours), the “PD-L1 depletion over time” value is “only depletes PD-L1 for short periods of time”.
In the case of `Nc1ccn([C@@H]2O[C@H](CO)[C@@H](O)C2(F)F)c(=O)n1` [gemcitabine], the “γH2AX following treatment, PD-L1^KO versus control cells” value was “markedly elevated; also recorded: accumulated more γH2AX” in the data set with γH2AX in RT4 cells and “markedly elevated” with γH2AX in ID8agg cells. The “fold more sensitive to gemcitabine, PD-L1^KO versus control cells” value stood at 29 fold in [1] (ID8agg cells) and 2 fold in [2] (RT4 cells). The “sensitivity of PD-L1^KO versus control RT4 cells to the agent” value in data set [2] is reported as “substantially lower viability”. In addition, the “PD-L1 after DNA damaging agent” value in the data set with PD-L1 is “increased PD-L1”.
On to `O=C(c1cc(Cc2n[nH]c(=O)c3ccccc23)ccc1F)N1CCN(C(=O)C2CC2)CC1` [olaparib], for which the “cytotoxicity against PD-L1^KO versus control B16 cells” value in data set [3] is on record as “Moderate differences”. For the same molecule, the “sensitivity of PD-L1^KO versus control ID8agg cells to the agent” value in data set [1] was “Minimal effects”. In addition, in data set [2], the “sensitivity of PD-L1^KO versus control RT4 cells to the agent” value is reported as “Minimal effects”. In [4], the “sensitivity of PD-L1^KO versus control MB49 cells to the agent” value was “more sensitive”. The “tumor growth and weight after treatment” value in [5] was “robustly growth inhibited and weighed less”. In addition, the “limiting PD-L1^KO B16 tumors” value in data set [6] (RAG2^KO mice lacking adaptive immunity) is given as “ineffective”. For the same molecule, the “control of PD-L1^KO versus control B16 growth” value in data set [6] (wild type mice) was “significantly more effective”.
On to `Cc1cnc(NC(=O)Nc2cc(Br)c(C)cc2OC[C@@H]2CNCCO2)cn1` [rabusertib], for which, in the data set with 4T1 tumors, the “4T1 tumors in vivo” value is recorded as “failed to benefit”. Also, in data set [7], the “tumor sensitivity to single agent treatment” value was “particularly sensitive”. Moreover, in data set [3], the “cytotoxicity against PD-L1^KO versus control B16 cells” value is listed as “striking cytotoxicity”. In addition, the “sensitivity of PD-L1^lo versus CTRL MDA-MB-231 cells” value in data set [8] was “more sensitive”. Moreover, the “sensitivity of PD-L1^KO versus control ID8agg cells to the agent” value in data set [1] (listed as Chk1i) is given as “enhanced sensitivity”. In addition, the “viability of RT4 cells, single agent” value in data set [9] is given as “expected dose-response toxicity”. In addition, in [2], the “cytotoxicity in PD-L1^KO versus control RT4 cells” value is on record as “over 15 fold” and the “sensitivity of PD-L1^KO versus control RT4 cells to the agent” value is “striking cytotoxicity”. The “synthetic lethality in induced PD-L1^KO tumors” value in data set [10] is reported as “exhibited synthetic lethality”. Besides, the “sensitivity of PD-L1^lo versus control 4T1 cells to the agent” value in data set [11] was “significantly growth inhibited; also recorded: enhanced sensitivity”. In addition, in data set [12], the “control of in vivo growth, PD-L1 null versus PD-L1 replete tumors” value is on record as “controlled in vivo growth significantly better”. Further, in the data set on PD-L1, the “PD-L1 after DNA damaging agent” value is on record as “increased PD-L1”.
For atezolizumab, in data set [9], the “viability of RT4 cells, single agent” value is “slightly reduced viability”.
